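Tested at 5 concentrations; 48 h exposure; 96-well plates; endpoints linearly interpolated, else capped at highest concentration. GI50 is the concentration that inhibits growth by half.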 The source made the active and inactive calls. No stated cut-off is given here; in the data, active = GI50 up to about 1.1 µM and inactive = higher.
How the values were obtained:
Test in all cases: NCI-60 cell line screen, 48 h
786-0 = system: 786-0
ACHN = system: ACHN
CAKI-1 = system: CAKI-1
HCT-116 = system: HCT-116
HT-29 = system: HT-29
K562 = system: K562
KM12 = system: KM12
MCF7 = system: MCF7
MOLT-4 = system: MOLT-4
NCI/ADR-RES = system: NCI/ADR-RES
OVCAR-4 = system: OVCAR-4
OVCAR-5 = system: OVCAR-5
PC-3 = system: PC-3
SF-539 = system: SF-539
SK-MEL-28 = system: SK-MEL-28
SK-MEL-2 = system: SK-MEL-2
SN12C = system: SN12C
SNB-19 = system: SNB-19
SW-620 = system: SW-620
U-251 = system: U-251

Measured: GI50

CCN1CCN(c2nc3ccccc3c3c2CCOc2ccccc2-3)CC1
inactive: 786-0 22.3 µM | ACHN > 61.2 µM | CAKI-1 25.1 µM | HCT-116 29.3 µM | HT-29 > 31 µM | K562 18.1 µM | KM12 24.9 µM | MCF7 > 39.8 µM | MOLT-4 10.6 µM | NCI/ADR-RES > 46.3 µM | OVCAR-4 > 53.2 µM | OVCAR-5 > 45.1 µM | PC-3 32.7 µM | SF-539 > 46.2 µM | SK-MEL-28 16.6 µM | SK-MEL-2 27.4 µM | SN12C > 55.3 µM | SNB-19 39.1 µM | SW-620 24.9 µM | U-251 32.9 µM

O=c1sc2c(s1)SSSSS2
inactive: 786-0 > 50 µM | ACHN > 50 µM | CAKI-1 > 50 µM | HCT-116 > 50 µM | HT-29 21.1 µM | K562 31.8 µM | KM12 > 50 µM | MCF7 31.1 µM | MOLT-4 11.8 µM | NCI/ADR-RES > 50 µM | OVCAR-4 > 50 µM | OVCAR-5 > 50 µM | PC-3 > 50 µM | SF-539 20.2 µM | SK-MEL-28 > 50 µM | SK-MEL-2 > 50 µM | SN12C > 50 µM | SNB-19 > 50 µM | SW-620 > 50 µM | U-251 > 50 µM

COc1ccc(C2(CC(C)C)CCN(S(=O)(=O)c3ccc(C)cc3)C2)cc1OC (configuration not stated)
inactive: 786-0 27.8 µM | ACHN 36.6 µM | CAKI-1 > 100 µM | HCT-116 20.2 µM | HT-29 35.6 µM | K562 2.88 µM | KM12 23.3 µM | MCF7 32.2 µM | MOLT-4 2.94 µM | NCI/ADR-RES 18.5 µM | OVCAR-4 27.3 µM | OVCAR-5 > 100 µM | PC-3 28.5 µM | SF-539 37 µM | SK-MEL-28 30.1 µM | SK-MEL-2 20.7 µM | SN12C > 100 µM | SNB-19 49.7 µM | SW-620 99.5 µM | U-251 36.2 µM

COC(=O)C1SC(N(C)c2ccccc2)=NC12c1ccccc1Nc1ccccc12 (configuration not stated)
inactive: 786-0 26.1 µM | ACHN 31 µM | CAKI-1 23.8 µM | HCT-116 23.3 µM | HT-29 19.3 µM | K562 15.1 µM | KM12 18.3 µM | MCF7 22 µM | MOLT-4 7.31 µM | NCI/ADR-RES 13.5 µM | OVCAR-4 19.7 µM | OVCAR-5 25.3 µM | PC-3 16.3 µM | SF-539 18.4 µM | SK-MEL-28 19.2 µM | SK-MEL-2 15.5 µM | SN12C 22.4 µM | SNB-19 23.9 µM | SW-620 27.9 µM | U-251 27.5 µM

C1CN2CCNCCN(CCN1)CC2
inactive: 786-0 > 100 µM | ACHN > 100 µM | CAKI-1 > 100 µM | HCT-116 > 100 µM | HT-29 > 100 µM | K562 > 100 µM | KM12 > 100 µM | MCF7 > 100 µM | MOLT-4 > 100 µM | NCI/ADR-RES > 100 µM | OVCAR-4 > 100 µM | OVCAR-5 > 100 µM | PC-3 > 100 µM | SF-539 > 100 µM | SK-MEL-28 > 100 µM | SK-MEL-2 > 100 µM | SN12C > 100 µM | SNB-19 > 100 µM | SW-620 > 100 µM | U-251 > 100 µM

O=S1(=O)OCCOS(=O)(=O)C1F
inactive: 786-0 > 100 µM | ACHN > 100 µM | CAKI-1 > 100 µM | HCT-116 > 100 µM | HT-29 > 100 µM | K562 > 100 µM | KM12 > 100 µM | MCF7 > 100 µM | MOLT-4 > 100 µM | NCI/ADR-RES > 100 µM | OVCAR-4 > 100 µM | OVCAR-5 > 100 µM | PC-3 > 100 µM | SF-539 43.6 µM | SK-MEL-28 > 100 µM | SK-MEL-2 > 100 µM | SN12C > 100 µM | SNB-19 > 100 µM | SW-620 > 100 µM | U-251 > 100 µM

Cn1c(=O)c2c(nc3n(C)c(=O)c4ccccc4n23)n(C)c1=O
inactive: 786-0 29.6 µM | ACHN 17.1 µM | CAKI-1 24.3 µM | HCT-116 71 µM | HT-29 75.3 µM | K562 > 67 µM | KM12 53.6 µM | MCF7 17.9 µM | MOLT-4 3.18 µM | NCI/ADR-RES 59.4 µM | OVCAR-4 > 100 µM | OVCAR-5 > 100 µM | PC-3 > 95.3 µM | SF-539 34.8 µM | SK-MEL-28 > 100 µM | SK-MEL-2 > 100 µM | SN12C 29.2 µM | SNB-19 25.8 µM | SW-620 42.2 µM | U-251 34 µM

COC1CC(OC2C(C)OC(OC3C(C)OC(OC4C(C)OC(O[C@H]5CC[C@@]6(C)C(=CC[C@]7(O)[C@@H]6C[C@@H](O)[C@@]6(C)[C@]7(O)CC[C@@]6(O)C(C)=O)C5)CC4OC)CC3OC)CC2OC)OC(C)C1O (some centres not stated)
inactive: 786-0 > 12.5 µM | ACHN > 12.5 µM | CAKI-1 > 12.5 µM | HCT-116 > 12.5 µM | HT-29 > 12.5 µM | K562 > 12.5 µM | KM12 > 12.5 µM | MCF7 > 12.5 µM | MOLT-4 > 12.5 µM | NCI/ADR-RES > 12.5 µM | OVCAR-4 > 12.5 µM | OVCAR-5 > 12.5 µM | PC-3 > 12.5 µM | SF-539 > 12.5 µM | SK-MEL-28 > 12.5 µM | SK-MEL-2 > 12.5 µM | SN12C > 12.5 µM | SNB-19 > 12.5 µM | SW-620 > 12.5 µM | U-251 > 12.5 µM

COc1cccc2c3ccccc3c3nc[nH]c3c12
inactive: 786-0 18.1 µM | ACHN 44.2 µM | CAKI-1 48.4 µM | HCT-116 29.8 µM | HT-29 31.6 µM | K562 12.4 µM | KM12 18.7 µM | MCF7 47.4 µM | MOLT-4 9.08 µM | NCI/ADR-RES 46.3 µM | OVCAR-4 > 88.7 µM | OVCAR-5 55.3 µM | PC-3 30.8 µM | SF-539 18.2 µM | SK-MEL-28 19.7 µM | SK-MEL-2 58.3 µM | SN12C > 66.5 µM | SNB-19 > 46.8 µM | SW-620 22.5 µM | U-251 14.7 µM

COc1cc(/C=C/C(=O)OC[C@H](Br)[C@H](OC(C)=O)c2ccc3c(c2)OCO3)cc(OC)c1OC
inactive: 786-0 > 100 µM | ACHN > 100 µM | CAKI-1 > 100 µM | HCT-116 > 100 µM | HT-29 > 100 µM | K562 > 100 µM | KM12 > 100 µM | MCF7 > 100 µM | MOLT-4 7.69 µM | NCI/ADR-RES 57.7 µM | OVCAR-4 > 100 µM | OVCAR-5 > 100 µM | PC-3 86.3 µM | SF-539 > 100 µM | SK-MEL-28 > 100 µM | SK-MEL-2 > 100 µM | SN12C > 100 µM | SNB-19 > 100 µM | SW-620 > 100 µM | U-251 > 100 µM

N#C/C(N)=C(C#N)/N=C/Nc1ccccc1N
inactive: 786-0 > 100 µM | ACHN > 100 µM | CAKI-1 > 100 µM | HCT-116 > 100 µM | HT-29 > 100 µM | K562 > 100 µM | KM12 > 100 µM | MCF7 > 100 µM | MOLT-4 > 100 µM | NCI/ADR-RES > 100 µM | OVCAR-4 > 100 µM | OVCAR-5 > 100 µM | PC-3 > 100 µM | SF-539 > 100 µM | SK-MEL-28 > 100 µM | SK-MEL-2 > 100 µM | SN12C > 100 µM | SNB-19 > 100 µM | SW-620 > 100 µM | U-251 > 100 µM

O=C(c1c(F)c(F)c(F)c(F)c1F)N1CCN(C(=O)c2c(F)c(F)c(F)c(F)c2F)C1=S
inactive: 786-0 13.2 µM | ACHN 7.69 µM | CAKI-1 2.69 µM | HCT-116 2.84 µM | HT-29 5.48 µM | K562 1.96 µM | KM12 6 µM | MCF7 5.43 µM | MOLT-4 2.77 µM | NCI/ADR-RES 7.33 µM | OVCAR-4 5.22 µM | OVCAR-5 15.6 µM | PC-3 7.67 µM | SF-539 10.8 µM | SK-MEL-28 4.8 µM | SK-MEL-2 2.11 µM | SN12C 8.11 µM | SNB-19 16.4 µM | SW-620 1.84 µM | U-251 6.49 µM

COC(=O)C(CCc1ccccc1I)C1=CCC2(CC1)OCCO2 (configuration not stated)
inactive: 786-0 51.3 µM | ACHN 79.3 µM | CAKI-1 95.3 µM | HT-29 35.1 µM | K562 66.4 µM | KM12 33.1 µM | MCF7 32.7 µM | MOLT-4 49.8 µM | NCI/ADR-RES 24.6 µM | OVCAR-4 40.1 µM | OVCAR-5 15.7 µM | PC-3 27 µM | SF-539 > 100 µM | SK-MEL-28 89.9 µM | SK-MEL-2 41.2 µM | SNB-19 36.3 µM | SW-620 40.4 µM | U-251 61.8 µM

COc1ccc(C(=O)/C=C/c2cc(O)c(O)c(F)c2F)c(OC)c1
inactive: 786-0 8 µM | ACHN 20.8 µM | CAKI-1 25.6 µM | HCT-116 6.95 µM | HT-29 4.67 µM | K562 17.9 µM | KM12 11.4 µM | MCF7 3.22 µM | NCI/ADR-RES 10.1 µM | OVCAR-4 19 µM | OVCAR-5 35 µM | PC-3 12.3 µM | SF-539 16.7 µM | SK-MEL-28 30 µM | SK-MEL-2 14.4 µM | SN12C 10.3 µM | SNB-19 27.2 µM | SW-620 15.4 µM | U-251 11.1 µM

— ChEMBL document CHEMBL1201862, “PubChem BioAssay data set” (2004)
